{"source": "patent US11261186B2", "about": "“Biaryl derivative as GPR120 agonist” (LG CHEM, LTD., priority 2014, dated 2022)", "data": [{"molecular_target": "T1, hGPR120 (Homo sapiens, UniProt Q5NUL3)", "T1 construct": "expressed in transfected cells; host or cells: CHO-K1", "T1 sequence (Q5NUL3 1-361)": "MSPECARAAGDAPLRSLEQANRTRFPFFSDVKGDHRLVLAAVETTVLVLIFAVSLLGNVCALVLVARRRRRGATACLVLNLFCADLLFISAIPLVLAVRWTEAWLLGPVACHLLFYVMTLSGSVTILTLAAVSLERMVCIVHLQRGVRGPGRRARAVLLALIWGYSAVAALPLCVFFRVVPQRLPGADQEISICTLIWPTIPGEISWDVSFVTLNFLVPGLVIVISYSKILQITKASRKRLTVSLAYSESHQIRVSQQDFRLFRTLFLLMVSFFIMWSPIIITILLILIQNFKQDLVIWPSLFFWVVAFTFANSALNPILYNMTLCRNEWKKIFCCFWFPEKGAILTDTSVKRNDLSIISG", "experiment": "Measurement of Activity of GPR120 Agonist (Cell-Based Assay), Calcium 5 dye fluorescence", "settings": "CHO-K1 cells expressing Ga16 and hGPR120", "summary_of_the_method": "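After an 18 h incubation at 37 °C, the transfected CHO-K1 cells (Gα16, hGPR120) received Calcium 5 dye for 1 h; compound dilutions in 0.5% DMSO were then injected and emission at 525 nm recorded, with values given as % of the vehicle response.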", "units": {"EC50": "nM"}, "values": [{"smiles": "CN(CCCC(=O)O)c1c(F)cc(-c2cncc(OCC3CC3)n2)cc1F", "note": "[Example 491, 4-[4-[6-(cyclopropylmethoxy)pyrazin-2-yl]-2,6-difluoro-N-methyl-anilino]butanoic acid]", "EC50": "< 200"}, {"smiles": "CN(CCCC(=O)O)c1c(F)cc(-n2ncc3ccc(OC4CCC4)cc32)cc1F", "note": "[Example 492, 4-[4-[6-(cyclobutoxy)indazol-1-yl]-2,6-difluoro-N-methyl-anilino]butanoic acid]", "EC50": "< 200"}, {"smiles": "CN(CCCC(=O)O)c1c(F)cc(-c2cccc(OCC3CC3)n2)cc1F", "note": "[Example 493, 4-[4-[6-(cyclopropylmethoxy)-2-pyridyl]-2,6-difluoro-N-methyl-anilino]butanoic acid]", "EC50": "< 200"}, {"smiles": "O=C(O)CC1CCN(c2c(F)cc(-n3ncc4ccc(OC5CCC5)cc43)cc2F)C1", "note": "(stereo not drawn) [Example 494, 2-[1-[4-[6-(cyclobutoxy)indazol-1-yl]-2,6-difluoro-phenyl]pyrrolidin-3-yl]acetic acid]", "EC50": "200 to 2000"}, {"smiles": "CCCOc1cncc(-c2cc(F)c(N3CCC(CC(=O)O)C3)c(F)c2)n1", "note": "(stereo not drawn) [Example 495, 2-{1-[2,6-difluoro-4-(6-propoxy-pyrazin-2-yl)phenyl]pyrrolidin-3-yl}acetic acid]", "EC50": "< 200"}, {"smiles": "CC(C)COc1cncc(-c2cc(F)c(N3CCC(CC(=O)O)C3)c(F)c2)n1", "note": "(stereo not drawn) [Example 496, 2-{1-[2,6-difluoro-4-(6-isobutoxy-pyrazin-2-yl)phenyl]pyrrolidin-3-yl}acetic acid]", "EC50": "200 to 2000"}, {"smiles": "O=C(O)CC1CCN(c2c(F)cc(-c3cncc(OC4CCCC4)n3)cc2F)C1", "note": "(stereo not drawn) [Example 497, 2-{1-[2,6-difluoro-4-(6-cyclopentoxy-pyrazin-2-yl)phenyl]pyrrolidin-3-yl}acetic acid]", "EC50": "200 to 2000"}, {"smiles": "CCCCOc1cncc(-c2cc(F)c(N3CCC(CC(=O)O)C3)c(F)c2)n1", "note": "(stereo not drawn) [Example 498, 2-{1-[2,6-difluoro-4-(6-butoxy-pyrazin-2-yl)phenyl]pyrrolidin-3-yl}acetic acid]", "EC50": "< 200"}, {"smiles": "CCCOc1ccnc(-c2cc(F)c(N3CCC(CC(=O)O)C3)c(F)c2)n1", "note": "(stereo not drawn) [Example 499, 2-{1-[2,6-difluoro-4-(4-propoxy-pyrimidin-2-yl)phenyl]pyrrolidin-3-yl}acetic acid]", "EC50": "< 200"}, {"smiles": "CC(C)Oc1ccnc(-c2cc(F)c(N3CCC(CC(=O)O)C3)c(F)c2)n1", "note": "(stereo not drawn) [Example 500, 2-{1-[2,6-difluoro-4-(4-isopropoxy-pyrimidin-2-yl)phenyl]pyrrolidin-3-yl}acetic acid]", "EC50": "< 200"}, {"smiles": "CCOc1ccnc(-c2cc(F)c(N3CCC(CC(=O)O)C3)c(F)c2)n1", "note": "(stereo not drawn) [Example 501, 2-{1-[2,6-difluoro-4-(4-ethoxy-pyrimidin-2-yl)phenyl]pyrrolidin-3-yl}acetic acid]", "EC50": "< 200"}, {"smiles": "CC(C)COc1ccnc(-c2cc(F)c(N3CCC(CC(=O)O)C3)c(F)c2)n1", "note": "(stereo not drawn) [Example 502, 2-{1-[2,6-difluoro-4-(4-isobutoxy-pyrimidin-2-yl)phenyl]pyrrolidin-3-yl}acetic acid]", "EC50": "200 to 2000"}, {"smiles": "CC(C)CNc1cncc(-c2cc(F)c(N3CCC(CC(=O)O)C3)c(F)c2)n1", "note": "(stereo not drawn) [Example 503, 2-{1-[2,6-difluoro-4-(6-isobutylamino-pyrazin-2-yl)phenyl]pyrrolidin-3-yl}acetic acid]", "EC50": "200 to 2000"}, {"smiles": "O=C(O)CC1CCN(c2c(F)cc(-c3cncc(NC4CCCC4)n3)cc2F)C1", "note": "(stereo not drawn) [Example 504, 2-{1-[2,6-difluoro-4-(6-cyclopentylamino-pyrazin-2-yl)phenyl]pyrrolidin-3-yl}acetic acid]", "EC50": "200 to 2000"}, {"smiles": "CC(C)Nc1cncc(-c2cc(F)c(N3CCC(CC(=O)O)C3)c(F)c2)n1", "note": "(stereo not drawn) [Example 505, 2-{1-[2,6-difluoro-4-(6-isopropylamino-pyrazin-2-yl)phenyl]pyrrolidin-3-yl}acetic acid]", "EC50": "200 to 2000"}, {"smiles": "CCN(CC)c1cncc(-c2cc(F)c(N3CCC(CC(=O)O)C3)c(F)c2)n1", "note": "(stereo not drawn) [Example 506, 2-{1-[2,6-difluoro-4-(6-diethylamino-pyrazin-2-yl)phenyl]pyrrolidin-3-yl}acetic acid]", "EC50": "200 to 2000"}, {"smiles": "O=C(O)CCC1CCc2cc(-c3cncc(OC4CCC4)n3)ccc2S1", "note": "(stereo not drawn) [Example 507, 3-[6-(6-cyclobutoxy-pyrazin-2-yl)-thiochroman-2-yl]-propionic acid]", "EC50": "200 to 2000"}, {"smiles": "O=C(O)CC1CCN(c2c(F)cc(-c3nccc(Oc4ccc(Cl)cc4)n3)cc2F)C1", "note": "(stereo not drawn) [Example 509, 2-[1-[4-[4-(4-chlorophenoxy)pyrimidin-2-yl]-2,6-difluoro-phenyl]-pyrrolidin-3-yl]acetic acid]", "EC50": "200 to 2000"}, {"smiles": "O=C(O)CC1CCN(c2c(F)cc(-c3nccc(Oc4ccccc4)n3)cc2F)CC1", "note": "[Example 510, 2-[1-[4-[4-phenoxy-pyrimidin-2-yl]-2,6-difluoro-phenyl]-4-piperidyl]acetic acid]", "EC50": "< 200"}, {"smiles": "O=C(O)CC1CCN(c2c(F)cc(-c3nccc(Oc4ccc(F)cc4)n3)cc2F)CC1", "note": "[Example 511, 2-[1-[4-[4-(4-fluorophenoxy)pyrimidin-2-yl]-2,6-difluoro-phenyl]-4-piperidyl]acetic acid]", "EC50": "< 200"}, {"smiles": "O=C(O)CC1CCN(c2c(F)cc(-c3nccc(Oc4cccnc4)n3)cc2F)CC1", "note": "[Example 512]", "EC50": "200 to 2000"}, {"smiles": "O=C(O)CC1CCN(c2c(F)cc(-c3cncc(Oc4ccc(F)cc4)n3)cc2F)CC1", "note": "[Example 513, 2-[1-[2,6-difluoro-4-[6-(4-fluorophenoxy)pyrazin-2-yl]phenyl]-4-piperidyl]acetic acid]", "EC50": "< 200"}, {"smiles": "COc1ccc(Oc2ccnc(-c3cc(F)c(N4CCC(CC(=O)O)CC4)c(F)c3)n2)cc1", "note": "[Example 514, 2-[1-[4-[4-(4-methoxyphenoxy)pyrimidin-2-yl]-2,6-difluoro-phenyl]-4-piperidyl]acetic acid]", "EC50": "200 to 2000"}, {"smiles": "Cc1cc(Oc2ccc(F)cc2)nc(-c2cc(F)c(N3CCC(CC(=O)O)CC3)c(F)c2)n1", "note": "[Example 515, 2-[1-[2,6-difluoro-4-[4-(4-fluorophenoxy)-6-methyl-pyrimidin-2-yl]phenyl]-4-piperidyl]acetic acid]", "EC50": "200 to 2000"}, {"smiles": "Cc1ccc(Oc2ccnc(-c3cc(F)c(N4CCC(CC(=O)O)CC4)c(F)c3)n2)cc1", "note": "[Example 516, 2-[1-[4-[4-(p-tolyloxy)pyrimidin-2-yl]-2,6-difluoro-phenyl]-4-piperidyl]acetic acid]", "EC50": "< 200"}, {"smiles": "O=C(O)CC1CCN(c2c(F)cc(-c3nccc(Oc4ccc(F)c(F)c4)n3)cc2F)CC1", "note": "[Example 517, 2-[1-[4-[4-(3,4-difluorophenoxy)pyrimidin-2-yl]-2,6-difluoro-phenyl]-4-piperidyl]acetic acid]", "EC50": "< 200"}, {"smiles": "Cc1cc2cc(Cl)cc(-c3cc(F)c(OCCCC(=O)O)c(F)c3)c2o1", "note": "[Example 518, 4-[4-(5-chloro-2-methyl-benzofuran-7-yl)-2,6-difluoro-phenoxy]-butyric acid]", "EC50": "< 200"}, {"smiles": "Cc1cc2cc(Cl)cc(-c3cc(F)c(C(C)CCCC(=O)O)c(F)c3)c2o1", "note": "(stereo not drawn) [Example 519, 5-[4-(5-chloro-2-methyl-benzofuran-7-yl)-2,6-difluoro-phenyl]-hexanoic acid]", "EC50": "200 to 2000"}, {"smiles": "CN(CCCC(=O)O)c1c(F)cc(-c2cccc(OCC3CCC3)c2)cc1F", "note": "[Example 520, 4-[(3′-cyclobutylmethoxy-3,5-difluoro-biphenyl-4-yl)-methyl-amino]-butyric acid]", "EC50": "200 to 2000"}, {"smiles": "O=C(O)CCCOc1c(F)cc(-c2cccc(OCC3CCC3)c2)cc1F", "note": "[Example 521, 4-(3′-cyclobutylmethoxy-3,5-difluoro-biphenyl-4-yloxy)-butyric acid]", "EC50": "< 200"}]}]}
